Laboratory results: patent US11214594B2, “Antimicrobial peptide having synergistic antibacterial effect with antibiotics on multidrug resistant bacteria, and use thereof” (priority 2016, dated 2022)
In brackets after ≈: the same amount, converted by molar mass. Where two headings read alike, the source gives them in different places. Where a SMILES comes first, the peptide text is derived from it.

Legend:
MDRAB 12035 [1] = experiment: microbe, parasite or virus in culture; assay type: cell-based, Acinetobacter baumannii
Summary of the method: (§1)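 Peptides were serially diluted twofold in Mueller-Hinton medium and combined 1:1 with bacterial suspensions prepared at 2×10^6 CFU. Readout was the minimal inhibitory concentration, i.e. the lowest concentration with no growth.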

A. baumannii [2] = experiment: microbe, parasite or virus in culture; assay type: cell-based, Acinetobacter baumannii
Summary of the method: as §1

A. baumannii [3] = experiment: MIC of antibiotic during combined treatment with antimicrobial peptide; assay type: cell-based, Acinetobacter baumannii; details: for Antibiotic MIC, Erythromycin / Antibiotic MIC, Linezolid / Antibiotic MIC, Vancomycin: A. baumannii
Experimental: Thereafter, the MIC value of each mixed solution was determined by diluting the antibiotic solution with the MH medium, adding 50 μl of the diluted solution to each well, and performing an experiment even under a reversed condition.

MDREC 1229 = assay type: cell-based, Escherichia coli
Experimental: (§2) Specifically, the strains described in [Table 2] were prepared and diluted with an MH medium such that the number of bacteria was 2×10^6 colony-forming units (CFUs) per 1 ml, 100 μl of the diluted strains was each aliquoted into a 96-well microtiter plate, and then 50 μl of a peptide solution diluted with the MH medium from the MIC value (solution diluted stepwise at 2: 1) was added to each well. Thereafter, the MIC value of each mixed solution was determined by diluting the antibiotic solution with the MH medium, adding 50 μl of the diluted solution to each well, and performing an experiment even under a reversed condition.

E. coli = assay type: cell-based, Escherichia coli; details: E. coli
Experimental: as §2

MDRAB 12035 [4] = experiment: MIC of antibiotic during combined treatment with antimicrobial peptide; assay type: cell-based, Acinetobacter baumannii
Experimental: as §2

MDRPA 2003 = assay type: cell-based, Pseudomonas aeruginosa
Summary of the method: as §1

MDRPA 2002 = assay type: cell-based, Pseudomonas aeruginosa
Summary of the method: as §1

B. subtilis = experiment: microbe, parasite or virus in culture; assay type: cell-based, Bacillus subtilis
Summary of the method: as §1

[5] = combined with peptide at 1 μg/ml
[6] = combined with peptide at 2 μg/ml
[7] = combined with peptide at 4 μg/ml
[8] = combined with peptide at 6 μg/ml
[9] = combined with peptide at 8 μg/ml
[10] = combined with peptide at 16 μg/ml
[11] = combined with peptide at 32 μg/ml
[12] = combined with peptide at 64 μg/ml
[13] = peptide treatment concentration 1 μg/ml
[14] = peptide treatment concentration 2 μg/ml
[15] = peptide treatment concentration 4 μg/ml
[16] = peptide treatment concentration 6 μg/ml
[17] = peptide treatment concentration 8 μg/ml
[18] = peptide treatment concentration 16 μg/ml
[19] = peptide treatment concentration 32 μg/ml
[20] = peptide treatment concentration 64 μg/ml

CC[C@H](C)[C@H](NC(=O)[C@H](CCCCN)NC(=O)[C@H](Cc1c[nH]c2ccccc12)NC(=O)[C@@H](N)CCCNC(=N)N)C(=O)N[C@@H](Cc1ccccc1)C(=O)N[C@@H](CCCCN)C(=O)N[C@@H](CCCCN)C(=O)N[C@H](C(=O)N1CCC[C@H]1C(=O)N[C@@H](CCCCN)C(=O)N[C@@H](Cc1ccccc1)C(=O)N[C@@H](CC(C)C)C(=O)N[C@@H](Cc1c[nH]cn1)C(=O)N[C@@H](CCC(=O)O)C(=O)N[C@@H](C)C(=O)N[C@@H](CCCCN)C(=O)N[C@@H](CCCCN)C(=O)N[C@@H](Cc1ccccc1)C(N)=O)[C@@H](C)CC [PapMA-11, RWK IFK KIP KFL HEA KKF-NH2] (H-RWKIFKKIPKFLHEAKKF-NH2; N-terminus assumed)
Minimal inhibitory concentration MIC (MDRAB 12035 [1]): 64 mg/L (≈ 27.3 µM)
Peptide MIC, peptide alone (MDRAB 12035 [1]): 64 mg/L
Minimal inhibitory concentration MIC (A. baumannii [2]): 64 mg/L (≈ 27.3 µM)
Peptide MIC, peptide alone (A. baumannii [2]): 64 mg/L
Synergistic effect of antibacterial activity with existing antibiotics compared with PapMA-1 (A. baumannii [3]; A. baumannii and MDRAB 12035): level similar to that of PapMA-1 peptide
Antibiotic MIC, Erythromycin (A. baumannii [3]; [5]): 32 mg/L
Antibiotic MIC, Linezolid (A. baumannii [3]; [5]): 128 mg/L
Antibiotic MIC, Vancomycin (A. baumannii [3]; [5]): >128 mg/L
Antibiotic MIC, Erythromycin (A. baumannii [3]; [6]): 16 mg/L
Antibiotic MIC, Linezolid (A. baumannii [3]; [6]): 128 mg/L
Antibiotic MIC, Vancomycin (A. baumannii [3]; [6]): 128 mg/L
Antibiotic MIC, Erythromycin (A. baumannii [3]; [7]): 4 mg/L
Antibiotic MIC, Linezolid (A. baumannii [3]; [7]): 64 mg/L
Antibiotic MIC, Vancomycin (A. baumannii [3]; [7]): 32 mg/L
Antibiotic MIC, Erythromycin (A. baumannii [3]; [8]): 1 mg/L
Antibiotic MIC, Linezolid (A. baumannii [3]; [8]): 32 mg/L
Antibiotic MIC, Vancomycin (A. baumannii [3]; [8]): 16 mg/L
Antibiotic MIC, Erythromycin (A. baumannii [3]; [9]): 0.5 mg/L
Antibiotic MIC, Linezolid (A. baumannii [3]; [9]): 16 mg/L
Antibiotic MIC, Vancomycin (A. baumannii [3]; [9]): 8 mg/L
Antibiotic MIC, Erythromycin (A. baumannii [3]; [10]): 0.25 mg/L
Antibiotic MIC, Linezolid (A. baumannii [3]; [10]): 8 mg/L
Antibiotic MIC, Vancomycin (A. baumannii [3]; [10]): 4 mg/L
Antibiotic MIC, Erythromycin (A. baumannii [3]; [11]): 0.125 mg/L
Antibiotic MIC, Linezolid (A. baumannii [3]; [11]): 2 mg/L
Antibiotic MIC, Vancomycin (A. baumannii [3]; [11]): 1 mg/L
Antibiotic MIC, Erythromycin (A. baumannii [3]; [12]): 0 mg/L
Antibiotic MIC, Linezolid (A. baumannii [3]; [12]): 0 mg/L
Antibiotic MIC, Vancomycin (A. baumannii [3]; [12]): 0 mg/L
Peptide MIC during treatment with antibiotic (MDREC 1229; erythromycin 32 μg/ml (Conc./MIC 1/8)): 4 mg/L
Peptide MIC during treatment with antibiotic (MDREC 1229; erythromycin 64 μg/ml (Conc./MIC 1/4)): 2 mg/L
Peptide MIC during treatment with antibiotic (MDREC 1229; erythromycin […] (Conc./MIC 1)): 0 mg/L
Peptide MIC during treatment with antibiotic (MDREC 1229; erythromycin […] (Conc./MIC 1/2)): 1 mg/L
Peptide MIC during treatment with antibiotic (MDREC 1229; linezolid 64 μg/ml (Conc./MIC 1/8)): 8 mg/L
Peptide MIC during treatment with antibiotic (MDREC 1229; linezolid 512 μg/ml (Conc./MIC 1)): 0 mg/L
Peptide MIC during treatment with antibiotic (MDREC 1229; linezolid […] (Conc./MIC 1/2)): 2 mg/L
Peptide MIC during treatment with antibiotic (MDREC 1229; linezolid […] (Conc./MIC 1/4)): 4 mg/L
Peptide MIC during treatment with antibiotic (MDREC 1229; vancomycin 512 μg/ml (Conc./MIC 1/2)): 2 mg/L
Peptide MIC during treatment with antibiotic (MDREC 1229; vancomycin 1024 μg/ml (Conc./MIC 1)): 1 mg/L
Peptide MIC during treatment with antibiotic (MDREC 1229; vancomycin […] (Conc./MIC 1/4)): 4 mg/L
Peptide MIC during treatment with antibiotic (MDREC 1229; vancomycin […] (Conc./MIC 1/8)): 8 mg/L
Peptide MIC (E. coli; with Erythromycin […] (Conc./MIC 1)): 0 mg/L
Peptide MIC (E. coli; with Linezolid […] (Conc./MIC 1)): 0 mg/L
Peptide MIC (E. coli; with Vancomycin 1024 μg/ml (Conc./MIC 1)): 0 mg/L
Erythromycin MIC during combined treatment with peptide (MDRAB 12035 [4]; [13]): 32 mg/L
Linezolid MIC during combined treatment with peptide (MDRAB 12035 [4]; [13]): >128 mg/L
Vancomycin MIC during combined treatment with peptide (MDRAB 12035 [4]; [13]): >128 mg/L
Erythromycin MIC during combined treatment with peptide (MDRAB 12035 [4]; [14]): 16 mg/L
Linezolid MIC during combined treatment with peptide (MDRAB 12035 [4]; [14]): 128 mg/L
Vancomycin MIC during combined treatment with peptide (MDRAB 12035 [4]; [14]): 128 mg/L
Erythromycin MIC during combined treatment with peptide (MDRAB 12035 [4]; [15]): 8 mg/L
Linezolid MIC during combined treatment with peptide (MDRAB 12035 [4]; [15]): 64 mg/L
Vancomycin MIC during combined treatment with peptide (MDRAB 12035 [4]; [15]): 64 mg/L
Erythromycin MIC during combined treatment with peptide (MDRAB 12035 [4]; [16]): 2 mg/L
Linezolid MIC during combined treatment with peptide (MDRAB 12035 [4]; [16]): 32 mg/L
Vancomycin MIC during combined treatment with peptide (MDRAB 12035 [4]; [16]): 32 mg/L
Erythromycin MIC during combined treatment with peptide (MDRAB 12035 [4]; [17]): 1 mg/L
Linezolid MIC during combined treatment with peptide (MDRAB 12035 [4]; [17]): 16 mg/L
Vancomycin MIC during combined treatment with peptide (MDRAB 12035 [4]; [17]): 32 mg/L
Erythromycin MIC during combined treatment with peptide (MDRAB 12035 [4]; [18]): 0.5 mg/L
Linezolid MIC during combined treatment with peptide (MDRAB 12035 [4]; [18]): 8 mg/L
Vancomycin MIC during combined treatment with peptide (MDRAB 12035 [4]; [18]): 16 mg/L
Erythromycin MIC during combined treatment with peptide (MDRAB 12035 [4]; [19]): 0.125 mg/L
Linezolid MIC during combined treatment with peptide (MDRAB 12035 [4]; [19]): 2 mg/L
Vancomycin MIC during combined treatment with peptide (MDRAB 12035 [4]; [19]): 4 mg/L
Erythromycin MIC during combined treatment with peptide (MDRAB 12035 [4]; [20]): 0 mg/L
Linezolid MIC during combined treatment with peptide (MDRAB 12035 [4]; [20]): 0 mg/L
Vancomycin MIC during combined treatment with peptide (MDRAB 12035 [4]; [20]): 0 mg/L
Minimal inhibitory concentration MIC (MDRPA 2003): >128 mg/L
Minimal inhibitory concentration MIC (MDRPA 2002): 128 mg/L (≈ 54.6 µM)
Minimal inhibitory concentration MIC (B. subtilis): >128 mg/L
